Literature values in patent US20220351806A1, “Biomarker Panels for Guiding Dysregulated Host Response Therapy” (Endpoint Health Inc., priority 2019, published 2022).

How the values were obtained:
[1] = system: shock events induced by endotoxin; settings: rats, preventive administration, injected endotoxin; cited from earlier work
[2] = system: acid-induced lung injury; settings: rats, cited from earlier work
[3] = system: oncologic and lymphopenic patients; settings: over 390 oncologic and lymphopenic patients; cited from earlier work
[4] = system: septic animals; settings: exogenous TFPI expressed in mammalian cells and/or Escherichia coli; cited from earlier work

## CC1C(=O)OC2C(O)C34C5CC(C(C)(C)C)C36C(OC(=O)C6O)OC4(C(=O)O5)C12O (stereo not drawn) [BN 52021]
[1]
  release of thromboxane and prostaglandin factor 1-α (PGF1-α): reduced.

## CCOC(=O)[C@H](Cc1ccccc1)NC(=O)c1cc(Cl)c(OCCN2CCN(C)CC2)c(Cl)c1O.Cl.Cl [JTE 607]
[2]; acid-induced lung injury
  production of inflammatory cytokines (tumor necrosis factor-alpha, interleukin-6, cytokine-induced neutrophil chemoattractant): inhibit the production
[2]
  acid-induced lung injury: attenuate acid-

## CYT-107
[3]
  immunity: counts, and improved
  safety: safe, invariably

## tifacogin
[4]
  outcome in septic animals: coli improved
